Consider 16 molecules from patent publication US11753407B2, “Compounds for treating spinal muscular atrophy” (PTC Therapeutics, Inc., priority 2012, dated 2023).

A value given as a limit tells only on which side of the number the result lay.

The subject of series [1] is SMN2 minigene mRNA (SMN2-A minigene) in HEK293H cells. The series can be described thus: SMN2 minigene mRNA splicing RT-qPCR assay in cultured cells. As to conditions: Homo sapiens, HEK293-H; concentration increasing full length SMN2 mRNA 1.5-fold relative to vehicle-treated cells; HEK293H cells with SMN2-A minigene, 24 hours, 7-point concentration data; read-out: EC1.5x for production of full length SMN2 mRNA. The class given is cell-based, human. The gist of the method:
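Cells are seeded, left to attach 4-6 h, then dosed with test compound across seven concentrations and incubated 24 h. Lysates undergo RT-qPCR with primers/probe specific to the exon 7-containing minigene transcript, co-amplified with GAPDH. Fold change over vehicle is calculated, and EC1.5× marks the 1.5-fold point.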
(In qPCR the cycle at which signal appears reflects the starting amount.)

In series [2] the test system is Smn protein in SMA patient fibroblast cells (GM03813). The series can be described thus: Smn protein assay in cultured cells (SMN HTRF). The class given is cell-based, human. As to conditions: SMA patient fibroblast cells, 48 hours; for EC1.5x for Smn protein expression: 7-point concentration curve, SMN HTRF, concentration producing 1.5 times Smn protein vs DMSO vehicle control; for maximum fold (Fold) increase of Smn protein: 7-point concentration data, fold relative to vehicle control. The gist of the method:
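Patient-derived SMA fibroblasts are plated, given compound for 48 h, then lysed in RIPA buffer with protease inhibitors. Lysate Smn is detected by an anti-SMN d2/kryptate HTRF pair incubated overnight. The normalized ΔF is divided by the vehicle ΔF to give fold change, from which EC1.5× and maximum fold are taken.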
(In general: In TR-FRET formats the signal depends on donor and acceptor labels being close together.)

Turning to `Cc1cn2ccc(-c3cc(=O)n4cc(N5CCNCC5)ccc4n3)cc2n1` [Compound 555, 2-(2-methylimidazo[1,2-a]pyridin-7-yl)-7-(piperazin-1-yl)-4H-pyrido[1,2-a]pyrimidin-4-one], the melting point – broadly, the temperature, or range, at which the solid turns liquid – lay within 272 to 277 °C. In addition, in series [1], the EC (1.5-fold increase) was 1 to 3 µM. Further, in series [2], the “EC1.5x for Smn protein expression” value is “** (an EC1.5× between >1 μM and ≤3 μM is indicated by two stars (**))”; the “maximum fold (Fold) increase of Smn protein” value (“maximum fold (Fold) increase” below) is “*** (a fold increase between >1.35 and ≤1.5 is indicated by three stars (***))”.
In the case of `Cc1cc(C2CCN(CCO)CC2)cn2c(=O)cc(-c3ccc4nn(C)cc4c3)nc12` [Compound 711, 7-[1-(2-hydroxyethyl)piperidin-4-yl]-9-methyl-2-(2-methyl-2H-indazol-5-yl)-4H-pyrido[1,2-a]pyrimidin-4-one], the melting point is 216 to 222 °C. Besides, in series [1], the EC (1.5-fold increase) was less than 0.1 µM. In series [2], the “EC1.5x for Smn protein expression” value is reported as “**** (an EC1.5x≤0.3 μM is indicated by four stars (****))” and the “maximum fold (Fold) increase” value was “***** (a fold increase >1.65 is indicated by five stars (*****))”.
`Cc1cn2nc(-c3cc(=O)n4cc(N5C[C@@H](C)N[C@@H](C)C5)ccc4n3)cc2cn1` [Compound 442, 7-[(3R,5S)-3,5-dimethylpiperazin-1-yl]-2-(6-methylpyrazolo[1,5-a]pyrazin-2-yl)-4H-pyrido[1,2-a]pyrimidin-4-one] gave a melting point of 258 to 260 °C. Also, in series [1], the EC (1.5-fold increase) was less than 0.1 µM. Moreover, in series [2], the “EC1.5x for Smn protein expression” value is given as “**** (an EC1.5x≤0.3 μM is indicated by four stars (****))” and the “maximum fold (Fold) increase” value is given as “***** (a fold increase >1.65 is indicated by five stars (*****))”.
Turning to `O=c1cc(-c2ccc3nc(C(F)(F)F)cn3c2)nc2ccc(N3CCNCC3)cn12` [Compound 123, 7-(piperazin-1-yl)-2-[2-(trifluoromethyl)imidazo[1,2-a]pyridin-6-yl]-4H-pyrido[1,2-a]pyrimidin-4-one], the melting point is 250 to 255 °C. For the same molecule, the EC (1.5-fold increase) in series [1] was 1 to 3 µM. For the same molecule, in series [2], the “maximum fold (Fold) increase” value is “* (A maximum fold increase of ≤1.2 is indicated by one star (*))”.
The molecule `Cc1cn2cc(-c3cc(=O)n4cc(N5CCN(C(C)C)[C@H](C)C5)ccc4n3)cc(Cl)c2n1` [Compound 497, 2-(8-chloro-2-methylimidazo[1,2-a]pyridin-6-yl)-7-[(3R)-3-methyl-4-(propan-2-yl)piperazin-1-yl]-4H-pyrido[1,2-a]pyrimidin-4-one] returned a melting point of 278 to 281 °C. Moreover, in series [1], the EC (1.5-fold increase) was less than 0.1 µM. In series [2], the “EC1.5x for Smn protein expression” value was “*** (an EC1.5× between >0.3 μM and ≤1 μM is indicated by three stars (***))”; the “maximum fold (Fold) increase” value is “**** (a fold increase between >1.5 and ≤1.65 is indicated by four stars (****))”.
`CCCN1CCN(c2ccc3nc(-c4cc5c(CC)nc(C)cn5n4)cc(=O)n3c2)C[C@H]1C` [Compound 631, 2-(4-ethyl-6-methylpyrazolo[1,5-a]pyrazin-2-yl)-7-[(3R)-3-methyl-4-propylpiperazin-1-yl]-4H-pyrido[1,2-a]pyrimidin-4-one] showed a melting point of 243 to 245 °C. Moreover, the EC (1.5-fold increase) in series [1] lay within 0.1 to 0.3 µM. Besides, in series [2], the “EC1.5x for Smn protein expression” value was “*** (an EC1.5× between >0.3 μM and ≤1 μM is indicated by three stars (***))”; the “maximum fold (Fold) increase” value is reported as “***** (a fold increase >1.65 is indicated by five stars (*****))”.
Molecule `CN1CC=C(c2ccc3nc(-c4ccc5nn(C)cc5c4)cc(=O)n3c2)CC1` [Compound 476, 2-(2-methyl-2H-indazol-5-yl)-7-(1-methyl-1,2,3,6-tetrahydropyridin-4-yl)-4H-pyrido[1,2-a]pyrimidin-4-one] registered a melting point of 226 to 228 °C. The EC (1.5-fold increase) in series [1] was less than 0.1 µM. Besides, in series [2], the “EC1.5x for Smn protein expression” value was “**** (an EC1.5x≤0.3 μM is indicated by four stars (****))” and the “maximum fold (Fold) increase” value is recorded as “***** (a fold increase >1.65 is indicated by five stars (*****))”.
Taken in the same sequence, the figures for `CCN1CCN(c2ccc3nc(-c4cc5c(C)nc(C)cn5n4)cc(=O)n3c2)CC1` [Compound 338, 2-(4,6-dimethylpyrazolo[1,5-a]pyrazin-2-yl)-7-(4-ethylpiperazin-1-yl)-4H-pyrido[1,2-a]pyrimidin-4-one] were 251 to 253 °C, less than 0.1 µM, “**** (an EC1.5x≤0.3 μM is indicated by four stars (****))” and “***** (a fold increase >1.65 is indicated by five stars (*****))”.
Molecule `COc1ccc(-c2cc(=O)n3cc(N4CCN[C@@H](C)C4)ccc3n2)cc1F` [Compound 87, 2-(3-fluoro-4-methoxyphenyl)-7-[(3S)-3-methylpiperazin-1-yl]-4H-pyrido[1,2-a]pyrimidin-4-one] came in with a melting point of 175 to 178 °C. Moreover, the EC (1.5-fold increase) in series [1] lay within 0.1 to 0.3 µM. Further, in series [2], the “EC1.5x for Smn protein expression” value was “*** (an EC1.5× between >0.3 μM and ≤1 μM is indicated by three stars (***))”; the “maximum fold (Fold) increase” value is “**** (a fold increase between >1.5 and ≤1.65 is indicated by four stars (****))”.
`Cc1nc2c(F)cc(-c3cc(=O)n4cc(C5=CCNCC5)ccc4n3)cc2o1` [Compound 299, 2-(4-fluoro-2-methyl-1,3-benzoxazol-6-yl)-7-(1,2,3,6-tetrahydropyridin-4-yl)-4H-pyrido[1,2-a]pyrimidin-4-one] registered a melting point of 177 to 180 °C. The EC (1.5-fold increase) in series [1] is less than 0.1 µM. In series [2], the “EC1.5x for Smn protein expression” value is recorded as “**** (an EC1.5x≤0.3 μM is indicated by four stars (****))” and the “maximum fold (Fold) increase” value is “***** (a fold increase >1.65 is indicated by five stars (*****))”.
For the molecule `COc1ccc(-c2ccc3nc(N4CCC(N(C)C)CC4)cc(=O)n3c2)cc1F` [Compound 298, 2-[4-(dimethylamino)piperidin-1-yl]-7-(3-fluoro-4-methoxyphenyl)-4H-pyrido[1,2-a]pyrimidin-4-one], the melting point was 157 to 160 °C. The EC (1.5-fold increase) in series [1] fell in the range of 0.3 to 1 µM. In addition, in series [2], the “maximum fold (Fold) increase” value was “*** (a fold increase between >1.35 and ≤1.5 is indicated by three stars (***))”.
Turning to `O=c1cc(-c2cccc(F)c2)nc2ccc(N3CCNCC3)cn12` [Compound 61, 2-(3-fluorophenyl)-7-(piperazin-1-yl)-4H-pyrido[1,2-a]pyrimidin-4-one], the melting point was 153 to 156 °C. Besides, the EC (1.5-fold increase) in series [1] lay within 0.3 to 1 µM. In addition, in series [2], the “EC1.5x for Smn protein expression” value was “*** (an EC1.5× between >0.3 μM and ≤1 μM is indicated by three stars (***))”; the “maximum fold (Fold) increase” value is “**** (a fold increase between >1.5 and ≤1.65 is indicated by four stars (****))”.
In turn, `Cc1cn2cc(-c3cc(=O)n4cc(C5=CCNCC5)ccc4n3)cc2c(C)n1` [Compound 743, 2-(1,3-dimethylpyrrolo[1,2-a]pyrazin-7-yl)-7-(1,2,3,6-tetrahydropyridin-4-yl)-4H-pyrido[1,2-a]pyrimidin-4-one] came in with a melting point of 189 to 191 °C. In addition, the EC (1.5-fold increase) in series [1] was less than 0.1 µM. Also, in series [2], the “EC1.5x for Smn protein expression” value is recorded as “**** (an EC1.5x≤0.3 μM is indicated by four stars (****))” and the “maximum fold (Fold) increase” value is given as “***** (a fold increase >1.65 is indicated by five stars (*****))”.
With `CCc1cc(N2CCC(N(C)C)CC2)cn2c(=O)cc(-c3ccc(OC)c(OC)c3)nc12` [Compound 345, 2-(3,4-dimethoxyphenyl)-7-[4-(dimethylamino)piperidin-1-yl]-9-ethyl-4H-pyrido[1,2-a]pyrimidin-4-one], the melting point was 146 to 150 °C. Further, the EC (1.5-fold increase) in series [1] was less than 0.1 µM. In addition, in series [2], the “maximum fold (Fold) increase” value was “*** (a fold increase between >1.35 and ≤1.5 is indicated by three stars (***))”.
`Cc1nc2ccc(-c3cc(=O)n4cc(N5CC[C@@H](N(C)C)C5)ccc4n3)cc2o1` [Compound 264, 7-[(3R)-3-(dimethylamino)pyrrolidin-1-yl]-2-(2-methyl-1,3-benzoxazol-6-yl)-4H-pyrido[1,2-a]pyrimidin-4-one] registered a melting point of 203 to 207 °C. Also, the EC (1.5-fold increase) in series [1] was less than 0.1 µM. In series [2], the “EC1.5x for Smn protein expression” value is on record as “**** (an EC1.5x≤0.3 μM is indicated by four stars (****))” and the “maximum fold (Fold) increase” value is “***** (a fold increase >1.65 is indicated by five stars (*****))”.
On to `Cc1cn2cc(-c3cc(=O)n4cc(N5CCN6CCC[C@@H]6C5)ccc4n3)cc(Cl)c2n1` [Compound 292, 2-(8-chloro-2-methylimidazo[1,2-a]pyridin-6-yl)-7-[(8aR)-hexahydropyrrolo[1,2-a]pyrazin-2(1H)-yl]-4H-pyrido[1,2-a]pyrimidin-4-one], for which the melting point is 274 to 280 °C. For the same molecule, in series [1], the EC (1.5-fold increase) is less than 0.1 µM. Moreover, in series [2], the “EC1.5x for Smn protein expression” value is given as “**** (an EC1.5x≤0.3 μM is indicated by four stars (****))”; the “maximum fold (Fold) increase” value was “**** (a fold increase between >1.5 and ≤1.65 is indicated by four stars (****))”.
